Measured values taken from patent US11999727B2 (Tango Therapeutics, Inc., priority 2020, dated 2024).
pIC50: −log10 of the molar value. Where two headings read alike, the source gives them in different places.

Legend:
PRMT5 [1] = target: T1, PRMT5 (Homo sapiens, UniProt O14744); assay: PRMT5 biochemical IC50 assay with SAM as cofactor; details: PRMT5, SAM as cofactor; read-out: SAM IC50
T1 construct: purchased Viva (custom protein)

PRMT5 [2] = target: T1, PRMT5; assay: PRMT5 biochemical IC50 assay with no cofactor; details: PRMT5, no cofactor
Source text: Table 1 indicates IC50 values (μM) against PRMT5 for exemplary compounds in the presence of SAM as cofactor, with no cofactor, and with MTA as cofactor, respectively (columns 4-6). […] Ki values can be calculated from the IC50 values as described in the Examples section. As detailed in the Examples section, for the assay performed in the presence of SAM, IC50=Ki×1.5 (Ki=IC50/1.5).

PRMT5 [3] = target: T1, PRMT5; assay: PRMT5 biochemical IC50 assay with MTA as cofactor; details: PRMT5, MTA as cofactor; read-out: MTA IC50
[4] = system: HAP1 MTAP-intact cell line; assay: SDMA in-cell western assay, HAP1 MTAP-intact; format: cell-based; details: Homo sapiens
Method in brief: (§1)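 Compounds were tested in HAP1 cells differing only in MTAP status (endogenous expression versus null). Cellular SDMA levels were then measured by in-cell western, giving an IC50 in each background.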

[5] = system: HAP1 MTAP-deleted cell line; assay: SDMA in-cell western assay, HAP1 MTAP-deleted; format: cell-based; details: for pIC50: Homo sapiens; for MTAP intact/deleted ratio: SDMA in-cell western
Method in brief: as §1

[6] = system: HAP1 MTAP-deleted cell line; assay: Viability assay, MTAP-deleted cell line; format: cell-based; details: Homo sapiens
Source text: Table 1 additionally indicates IC50 values in a viability assay for the MTAP-deleted cell line (column 10), indicating the effect of treatment with compound on cell survival.

[7] = HAP1, SDMA in-cell western, HAP1 MTAP-intact, read-out: MTAP HAP1 intact IC50
[8] = HAP1, SDMA in-cell western, HAP1 MTAP-deleted, read-out: HAP1 MTAP deleted IC50
[9] = IC50 ratio HAP1 MTAP-intact vs HAP1 MTAP-deleted
[10] = HAP1, viability assay, MTAP-deleted cell line, read-out: HAP1 MTAP deleted viability
[11] = read-out: No Cofactor/ rel IC50
[12] = HAP1, SDMA in-cell western, HAP1 MTAP-deleted, read-out: HAP 1 MTAP deleted IC50
[13] = IC50 ratio HAP1 MTAP-intact / HAP1 MTAP-deleted
[14] = HAP1, viability, HAP1 MTAP-deleted cell line, read-out: HAP1 MTAP deleted viability

T1 sequence (O14744 whole entry): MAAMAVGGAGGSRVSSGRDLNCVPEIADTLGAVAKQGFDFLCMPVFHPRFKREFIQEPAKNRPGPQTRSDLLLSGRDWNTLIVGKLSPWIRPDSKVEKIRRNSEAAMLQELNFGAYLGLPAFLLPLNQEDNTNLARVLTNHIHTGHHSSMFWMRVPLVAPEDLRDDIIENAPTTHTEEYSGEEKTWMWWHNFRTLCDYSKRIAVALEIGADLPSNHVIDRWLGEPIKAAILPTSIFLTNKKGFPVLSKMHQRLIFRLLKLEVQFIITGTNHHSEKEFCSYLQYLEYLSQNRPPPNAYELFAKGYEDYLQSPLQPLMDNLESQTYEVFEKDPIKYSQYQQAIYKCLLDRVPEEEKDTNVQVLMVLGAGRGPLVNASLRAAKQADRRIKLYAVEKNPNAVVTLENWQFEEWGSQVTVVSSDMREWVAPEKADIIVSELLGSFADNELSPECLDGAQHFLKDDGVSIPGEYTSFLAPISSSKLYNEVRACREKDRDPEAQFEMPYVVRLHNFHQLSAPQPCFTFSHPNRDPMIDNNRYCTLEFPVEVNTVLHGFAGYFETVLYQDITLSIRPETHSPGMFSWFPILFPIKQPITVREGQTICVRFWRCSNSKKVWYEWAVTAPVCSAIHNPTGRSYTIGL
T1 sequence (Q9BQA1 whole entry partner): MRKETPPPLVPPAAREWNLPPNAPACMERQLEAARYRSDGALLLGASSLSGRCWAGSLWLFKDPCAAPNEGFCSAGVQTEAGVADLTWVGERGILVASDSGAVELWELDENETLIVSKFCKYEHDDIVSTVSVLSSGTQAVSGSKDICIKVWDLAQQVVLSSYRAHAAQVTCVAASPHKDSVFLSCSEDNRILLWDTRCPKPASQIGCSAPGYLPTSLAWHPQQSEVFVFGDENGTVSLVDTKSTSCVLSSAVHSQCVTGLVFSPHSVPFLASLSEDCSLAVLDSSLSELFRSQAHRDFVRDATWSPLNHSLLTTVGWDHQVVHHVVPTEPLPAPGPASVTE

pIC50 (PRMT5 [1]) | pIC50 (PRMT5 [2]; read-out: No Cofactor/rel IC50) | pIC50 (PRMT5 [3]) | pIC50 [4, 7] | pIC50 [5, 8] | pIC50 (PRMT5 [2]; [11]) | pIC50 [5, 12] | Structure (SMILES) | MTAP intact/deleted ratio [5, 9] | pIC50 [6, 10] | pIC50 ([4]; HAP1, read-out: MTAP HAP1 intact IC50) | pIC50 ([5]; HAP1, read-out: HAP1 MTAP deleted IC50) | pIC50 ([6]; HAP1, read-out: HAP1 MTAP deleted viability) | MTAP intact/deleted ratio [5, 13] | pIC50 [6, 14]
6.30 to 7.30 | > 7.30 | > 7.30 | > 7.00 | > 7.00 |  |  | CCc1cc(NC(=O)C(=O)N2C[C@@H](C)CC[C@@H]2c2ccc3sc(C4CCN(C5COC5)CC4)nc3c2)cnc1N [Compound 1224, N-(6-amino-5-ethylpyridin-3-yl)-2-((2R,53)-5-methyl-2-(2-(1-(oxetan-3-yl)piperidin-4-yl)benzo[d]thiazol-5-yl)piperidin-1-yl)-2-oxoacetamide] | A (an IC50 ratio greater than or equal to 10 fold) | > 6.00 |  |  |  |  | 
6.30 to 7.30 | > 7.30 | > 7.30 | > 7.00 | > 7.00 |  |  | CCc1cc(NC(=O)C(=O)N2C[C@@H](C)CC[C@@H]2c2ccc3sc(C(C)(C)N(C)C)nc3c2)cnc1N [Compound 1237, N-(6-amino-5-ethylpyridin-3-yl)-2-((2R,5S)-2-(2-(2-(dimethylamino)propan-2-yl)benzo[d]thiazol-5-yl)-5-methylpiperidin-1-yl)-2-oxoacetamide] | A (an IC50 ratio greater than or equal to 10 fold) | > 6.00 |  |  |  |  | 
6.30 to 7.30 | 6.30 to 7.30 | > 7.30 | 6.00 to 7.00 | > 7.00 |  |  | CCc1cc(NC(=O)C(=O)N2C[C@@H](C)CC[C@@H]2c2ccc3sc(-c4ccccn4)nc3c2)cnc1N [Compound 1238, N-(6-amino-5-ethylpyridin-3-yl)-2-((2R,5S)-5-methyl-2-(2-(pyridin-2-yl)benzo[d]thiazol-5-yl)piperidin-1-yl)-2-oxoacetamide] | A (an IC50 ratio greater than or equal to 10 fold) | > 6.00 |  |  |  |  | 
> 7.30 |  | > 7.30 | > 7.00 |  | > 7.30 | > 7.00 | CCc1cc(NC(=O)C(=O)N2C[C@@H](C)CC[C@@H]2c2ccc3sc(C4CCNCC4)nc3c2)cnc1N [Compound 1240, N-(6-amino-5-ethyl-3-pyridyl)-2-[(2R,5S)-5-methyl-2-[2-(4-piperidyl)-1,3-benzothiazol-5-yl]-1-piperidyl]-2-oxo-acetamide] |  |  |  |  |  | B (an IC50 ratio greater than or equal to 3 fold but lower than 10 fold) | > 6.00
6.30 to 7.30 |  | > 7.30 | 6.00 to 7.00 |  | > 7.30 | > 7.00 | CCc1cc(NC(=O)C(=O)N2C[C@@H](C)CC[C@@H]2c2ccc3sc(C4CCOC4)nc3c2)cnc1N (stereo partly drawn) [Compound 1242, N-(6-amino-5-ethylpyridin-3-yl)-2-((2R,5S)-5-methyl-2-(2-(tetrahydrofuran-3-yl)benzo[d]thiazol-5-yl)piperidin-1-yl)-2-oxoacetamide] |  |  |  |  |  | A (an IC50 ratio greater than or equal to 10 fold) | > 6.00
6.30 to 7.30 |  | > 7.30 | > 7.00 |  | > 7.30 | > 7.00 | CCc1cc(NC(=O)C(=O)N2C[C@@H](C)CC[C@@H]2c2ccc3sc(N4CCN(C)CC4)nc3c2)cnc1N [Compound 1244, N-(6-amino-5-ethylpyridin-3-yl)-2-((2R,5S)-5-methyl-2-(2-(4-methylpiperazin-1-yl)benzo[d]thiazol-5-yl)piperidin-1-yl)-2-oxoacetamide] |  |  |  |  |  | A (an IC50 ratio greater than or equal to 10 fold) | > 6.00
6.30 to 7.30 |  | > 7.30 | 6.00 to 7.00 |  | > 7.30 | > 7.00 | CCc1cc(NC(=O)C(=O)N2C[C@@H](C)CC[C@@H]2c2ccc3sc([C@H]4COCCN4C)nc3c2)cnc1N [Compound 1245, N-(6-amino-5-ethylpyridin-3-yl)-2-((2R,5S)-5-methyl-2-(2-(4-methylmorpholin-3-yl)benzo[d]thiazol-5-yl)piperidin-1-yl)-2-oxoacetamide] |  |  |  |  |  | A (an IC50 ratio greater than or equal to 10 fold) | > 6.00
> 7.30 |  | > 7.30 | 6.00 to 7.00 |  | > 7.30 | > 7.00 | CCc1cc(NC(=O)C(=O)N2C[C@@H](C)CC[C@@H]2c2ccc3sc(CCN4CCOCC4)nc3c2)cnc1N [Compound 1248, N-(6-amino-5-ethylpyridin-3-yl)-2-((2R,5S)-5-methyl-2-(2-(2-morpholinoethyl)benzo[d]thiazol-5-yl)piperidin-1-yl)-2-oxoacetamide] |  |  |  |  |  | A (an IC50 ratio greater than or equal to 10 fold) | > 6.00

Further lines, the molecule ahead of its results:

Structure (SMILES) | pIC50 (PRMT5 [1]) | pIC50 (PRMT5 [2]; read-out: No Cofactor/rel IC50) | pIC50 (PRMT5 [3]) | pIC50 [4, 7] | pIC50 [5, 8] | pIC50 (PRMT5 [2]; [11]) | pIC50 [5, 12] | MTAP intact/deleted ratio [5, 9] | pIC50 [6, 10] | pIC50 ([4]; HAP1, read-out: MTAP HAP1 intact IC50) | pIC50 ([5]; HAP1, read-out: HAP1 MTAP deleted IC50) | pIC50 ([6]; HAP1, read-out: HAP1 MTAP deleted viability) | MTAP intact/deleted ratio [5, 13] | pIC50 [6, 14]
Cc1cc(NC(=O)C(=O)N2C[C@@H](C)CC[C@@H]2c2ccc3sc(C4CCN(C)CC4)cc3c2)cnc1N [Compound 1220, N-(6-amino-5-methyl-3-pyridyl)-2-[(2R,5S)-5-methyl-2-[2-(1-methyl-4-piperidyl)benzothiophen-5-yl]-1-piperidyl]-2-oxo-acetamide] | > 7.30 | > 7.30 | > 7.30 | > 7.00 | > 7.00 |  |  | B (an IC50 ratio greater than or equal to 3 fold but lower than 10 fold) | > 6.00 |  |  |  |  | 
Cc1cc(NC(=O)C(=O)N2C[C@@H](C)CC[C@@H]2c2ccc(N(C)C3CCN(C)CC3)nc2)cnc1N [Compound 1225, N-(6-Amino-5-methyl-3-pyridyl)-2-[(2R,5S)-5-methyl-2-[6-[methyl-(1-methyl-4-piperidyl)amino]-3-pyridyl]-1-piperidyl]-2-oxo-acetamide] | > 7.30 | > 7.30 | > 7.30 |  |  |  |  | A (an IC50 ratio greater than or equal to 10 fold) |  | 6.00 to 7.00 | > 7.00 | > 6.00 |  | 
CCc1cc(NC(=O)C(=O)N2C[C@@H](C)CC[C@@H]2c2cccc(CCN(C)C)c2)cnc1N [Compound 1226, N-(6-amino-5-ethylpyridin-3-yl)-2-((2R,5S)-2-(3-(2-(dimethylamino)ethyl)phenyl)-5-methylpiperidin-1-yl)-2-oxoacetamide] | 6.30 to 7.30 | > 7.30 | > 7.30 | 6.00 to 7.00 | > 7.00 |  |  | A (an IC50 ratio greater than or equal to 10 fold) | > 6.00 |  |  |  |  | 
CCc1cc(NC(=O)C(=O)N2C[C@@H](C)CC[C@@H]2c2ccc(CCN(C)C)cc2)cnc1N [Compound 1228, N-(6-amino-5-ethylpyridin-3-yl)-2-((2R,5S)-2-(4-(2-(dimethylamino)ethyl)phenyl)-5-methylpiperidin-1-yl)-2-oxoacetamide] | 6.30 to 7.30 | > 7.30 | > 7.30 | 6.00 to 7.00 | > 7.00 |  |  | A (an IC50 ratio greater than or equal to 10 fold) | > 6.00 |  |  |  |  | 
CCc1cc(NC(=O)C(=O)N2C[C@@H](C)CC[C@@H]2c2ccc(N3CCC(CN(C)CC)CC3)cc2)cnc1N [Compound 1232, N-(6-Amino-5-ethylpyridin-3-yl)-2-[(2R,5S)-2-[4-(4-{[ethyl(methyl)amino]methyl}piperidin-1-yl)phenyl]-5-methylpiperidin-1-yl]-2-oxoacetamide] | 6.30 to 7.30 | > 7.30 | > 7.30 | 6.00 to 7.00 | > 7.00 |  |  | A (an IC50 ratio greater than or equal to 10 fold) | > 6.00 |  |  |  |  | 
COc1ncc(NC(=O)C(=O)N2C[C@@H](C)CC[C@@H]2c2ccc3sc(C4CC5(C4)CN(C)C5)nc3c2)cc1C(N)=O [Compound 1236, 2-methoxy-5-(2-((2R,5S)-5-methyl-2-(2-(2-methyl-2-azaspiro[3.3]heptan-6-yl)benzo[d]thiazol-5-yl)piperidin-1-yl)-2-oxoacetamido)nicotinamide] | > 7.30 | > 7.30 | > 7.30 | > 7.00 | > 7.00 |  |  | A (an IC50 ratio greater than or equal to 10 fold) | > 6.00 |  |  |  |  | 
CCc1cc(NC(=O)C(=O)N2C[C@@H](C)CC[C@@H]2c2cc(Cl)cc(OCCN(C)C)c2)cnc1N [Compound 1247, N-(6-amino-5-ethylpyridin-3-yl)-2-((2R,5S)-2-(3-chloro-5-(2-(dimethylamino)ethoxy)phenyl)-5-methylpiperidin-1-yl)-2-oxoacetamide] | > 7.30 |  | > 7.30 | 6.00 to 7.00 |  | > 7.30 | > 7.00 |  |  |  |  |  | A (an IC50 ratio greater than or equal to 10 fold) | > 6.00
